The text below walks through data of patent publication US11478470B2, “Combination product of Bcl-2 inhibitor or Bcl-2/Bcl-xL dual inhibitor and BTK inhibitor and use thereof in the prevention and/or treatment of diseases” (ASCENTAGE PHARMA (SUZHOU) CO., LTD., priority 2018, dated 2022).

Molecules are shown by their SMILES.

One test has as its system DOHH-2 cells. The test is described as follows: Flow cytometry analysis of apoptosis (Annexin V/PI), DOHH-2. The format is cell-based, human. The following applies: DOHH-2, 24 hours; 10 nM Compound 6, 100 nM ibrutinib, or the combination. On the procedure: (§1) Apoptosis was evaluated with AnnexinV/propidium iodide (PI) dyes (BD Biosciences, Cat. 556547) according to manufacturer's instructions. Briefly, cells were seeded in 24-well plates at a density 2×10^5 cells/well, and treated with Compound 6 and/or ibrutinib (Selleck) to induce apoptosis. After 24 h, cells were collected, washed twice with PBS (pH 7.4), and stained with Annexin-V and propidium iodide (PI) for 15 mins. Stained samples were analyzed using flow cytometer Attune NxT (Life technologies).
(§2) In the experiment, the combination treatment with Compound 6 and ibrutinib was evaluated for its ability of apoptosis induction on DOHH2 and OCI-LY1 cells by co-staining of Annexin-V/Propidium iodide (PI) followed by flow cytometry analysis (FIG. 7A). […] Flow cytometry analysis of apoptotic cells by Annexin V and propidium iodide (PI) co-staining in DOHH-2 and OCI-LY1 cell lines treated with 10 nM (DOHH-2) or 15 nM (OCI-LY1) Compound 6, 100 nM (DOHH-2) or 150 nM (OCI-LY1) ibrutinib, or the combination for 24 hours. Three independent experiments were conducted and the representative results are shown (7A). The percentages of Annexin V-positive, PI-positive, or double positive DOHH-2 (7B) and OCI-LY1 (7C) cells are plotted as bar charts and shown as mean±SEM (n=3) (**p<0.01, ***p<0.001).
For orientation: A flow cytometer gives signals particle by particle.

A further test has as its system DOHH2 cells. Kind of test: CellTiter-Glo cell viability assay, DOHH2 cells (Example 11). The format is cell-based. The note with it: Homo sapiens, DOHH-2, DOHH2 parental cells. The protocol:
(§3) DOHH2 cells were cultured in RPM11640 medium containing 10% calf serum, 1% antibiotics and 5 ug/ml verapamil (calcium ion channel blocker), and ibrutinib was added at a gradually increasing concentration from 0.5 uM to 10 uM. After exposure for about three months, a ibrutinib-resistant DOHH2R cell line was obtained, also referred to as DOHH2^R-ibrutinib. After DOHH2^R-ibrutinib was stabilized, it was continued to be cultured in culture medium containing 10 uM Ibrutinib to maintain its resistance. Ibrutinib is absent only in the susceptibility test with Compound 6 or 88.
(§4) Relative light units (RLU) were determined by a microplate reader (BioTek, Synergy H1 MF, USA). […] IC50 values were calculated using GraphPad Prism. IC50 was expressed as mean±standard deviation (SD).

For test [1], the system named is human OCI-LY1 (DLBCL) xenograft tumor. The format is in vivo. The note with it: Cpd. 6 50 mg/kg, Ibrutinib 20 mg/kg. The protocol: (§5) . All animal experiments were strictly in accordance with the laboratory animal use and management practices of GenePharma Co., Ltd. and Ascentage Pharma Group Co., Ltd. The calculation of relevant parameters referred to the Chinese CFDA “Guidelines for Non-Clinical Research Techniques of Cytotoxic Antitumor Drugs”.
(§6) Animal body weight and tumor size were measured twice a week during the experiment. Tumor growth was observed periodically, and the animals were randomly divided into groups according to tumor size and mouse body weight when the tumors grew to an average volume of 100-200 mm^3. The conditions and death of the animals were observed every day. Routine monitoring included the effects of tumor growth and treatment on normal animal behaviors, including activity, feeding and drinking situations, weight gain or loss, eyes, coat and other abnormalities in the experimental animals. The deaths and clinical symptoms observed during the experiment were recorded in the raw data. The entire operations of administration, measurement of mouse body weight and tumor volume were performed in a clean bench. Plasma and tumor tissues were collected, weighed and photographed after the end of the last administration according to the experimental protocol. Plasma and tumor samples were frozen and stored at −80° C.
(§7) Tumor volume (TV) was calculated as: TV=a×b^2/2, in which a and b represented the length and width of the tumor as measured, respectively. The relative tumor volume (RTV) was calculated as: RTV=Vt/V1, in which V1 was the tumor volume at the time of grouping and administration, and Vt was the tumor volume measured on a day after administration. The evaluation index of anti-tumor activity was the relative tumor proliferation rate T/C (%), which was calculated as: relative tumor proliferation rate T/C (%)=(TRTV/CRTV)×100%, in which TRTV was the RTV of the treatment group, CRTV was the RTV of the vehicle control group; tumor remission rate (%) was calculated as: (the number of SD (stable disease), PR (tumor partial regression) and CR (tumor complete regression) in the tumor-bearing mice after treatment)/the total number of mice in the group×100%. Change of body weight %=(measured body weight−body weight at the time of grouping)/body weight at the time of grouping×100%.
(§8) ; The synergistic analysis was performed by the following formula: synergy factor=((A/C)×(B/C))/(AB/C); A=RTV value of the group administered with A only; B=RTV value of the group administered with B only; C=RTV value of the vehicle control group; AB=RTV value of the group administered with A and B in combination (Clarke R. Issues in experimental design and endpoint analysis in the study of experimental cytotoxic agents in vivo in breast cancer and other models [J]. Breast Cancer Research & Treatment, 1997, 46(2-3): 255-278). If the synergy factor was >1, there was a synergistic effect; if the synergistic factor=1, there was an additive effect; if the synergistic factor <1, there was an antagonistic effect.

Test [2] concerns human DOHH2 (FL) xenograft tumor. The format is in vivo. The following applies: Cpd. 6 50 mg/kg, Ibrutinib 20 mg/kg. The protocol:
as §5, §6, §7, §8

For a further test, the system named is OCI-LY1 cells. The test is described as follows: Flow cytometry analysis of apoptosis (Annexin V/PI), OCI-LY1. The test is classed as cell-based, human. The note with it: OCI-LY1, 24 hours; 15 nM Compound 6, 150 nM ibrutinib, or the combination. On the procedure: as §1, §2
A further test has as its system DOHH2^R-ibrutinib cells. Kind of test: CellTiter-Glo cell viability assay, ibrutinib-resistant DOHH2R-ibrutinib cells. The format is cell-based, human. The following applies: Homo sapiens; ibrutinib-resistant cells, CellTiter-Glo, 24 or 72 hours; read-out: IC50 value to the DOHH2^R-ibrutinib cell line (cell viability). On the procedure: as §3, §4
A general note: Cellular ATP, detected with luciferase, serves as a proxy for viable cell number.

As to `O=C(NS(=O)(=O)c1ccc(NC[C@H]2COCCO2)c([N+](=O)[O-])c1)c1ccc(N2CCN(CC3=C(c4ccc(Cl)cc4)CC4(CCC4)CC3)CC2)cc1Oc1cnc2[nH]ccc2c1` [Compound 6, (S)-N-((4-(((1,4-dioxan-2-yl)methyl)amino)-3-nitrophenyl)sulfonyl)-2-((1H-pyrrolo[2,3-b]pyridin-5-yl)oxy)-4-(4-((6-(4-chlorophenyl)spiro[3.5]non-6-en-7-yl)methyl)piperazin-1-yl)benzamide], the “apoptosis induction (Annexin V / PI positive cells)” value in the test with DOHH-2 cells and with OCI-LY1 cells was “slightly enhanced apoptotic activity” throughout. The IC50 (usually the concentration needed to halve the response being measured) in the test with DOHH2 cells was found to be 48.4 nM; in the test on DOHH2^R-ibrutinib cells it was 648 nM. Also, in test [1] (day 36), the “RTV on day 36 after administration (mean ± standard error)” value was found to be 2.2 ± 0.4. The “T/C on day 36 after administration” value in test [1] (day 36, given as fraction) was found to be 0.090. In addition, the “RTV on day 43 after administration” value in test [1] (day 43) is 7.1 ± 0.4. Besides, the “RTV on day 35 after administration (mean ± standard error)” value in test [2] is 7.5 ± 0.7. Further, in test [2], the “T/C (%) on day 35 after administration” value worked out at 44.40%.
